Source: patent US6906107B2, “Use of cyclohexenone derivatives for the manufacture of a medicament in the treatment of dysuria” (Meiji Dairies Corporation, priority 2001, dated 2005)

Assays:
STZ-administered rat [1] = assay: Test 1: maximum quantity excreted by single urination, metabolic cage, 24 hours; assay type: in vivo; conditions: STZ 65 mg/kg i.p. rat; Compound 4 i.p. 8 mg/kg daily for 8 weeks; mean ± S.E.; p < 0.05 relative to STZ-administered group
Protocol: Test 1 (Maximum Quantity Excreted by Single Urination)
To a rat, 65 mg/kg of streptozotocin (STZ) was administered intraperitoneally. After intraperitoneal administration of Compound 4, which had been obtained in Preparation Example 4, at a daily dose of 8 mg/kg for 8 weeks from two days after administration of STZ, urination pattern such as urination frequency and urination amount was recorded for 24 hours at 2.5-min intervals by using a metabolic cage.

STZ-administered rat [2] = assay: Test 2: bladder capacity and urination efficiency from intravesical pressure under anesthesia; assay type: in vivo; conditions: Compound 4 i.p. 8 mg/kg daily for 8 weeks, mean ± S.E., p < 0.05 relative to STZ-administered group
Protocol: Test 2 (Bladder Capacity and Urination Efficiency)
In a similar manner to Test 1, Compound 4 obtained in Preparation Example 4 was administered intraperitoneally to a rat at a daily dose of 8 mg/kg for 8 weeks two days after administration of STZ. The intravesical pressure was measured under anesthesia. From the results, the bladder capacity and urination efficiency were determined.
Urination efficiency (%)=100×excreted amount/bladder capacity

bladder smooth muscle = assay: Test 3: contractive force of extracted bladder smooth muscle after ischemia-reperfusion of abdominal aorta; assay type: in vivo, rat; conditions: for Contractive force (contraction by carbachol) / Contractive force (contraction by concentrated potassium chloride): 30 minutes ischemia, 30 minutes reperfusion; for Contractive force (contraction by concentrated potassium chloride): potassium chloride 100 mM
Protocol: Test 3 ([…]) Compound 4 obtained in Preparation Example 4 was administered intraperitoneally to a rat immediately before the ischemia at a dose of 0.5, 2.0 and 8.0 mg/kg, and the rat was anesthetized by use of pentobarbital. Following 30 minutes ischemia of abdominal aorta of the rats, the abdominal aorta was subjected to perfusion for 30 minutes. Each bladder was then extracted and fixed in organbath filled with Krebs-Henseleit nutritive solution. By the use of TB-612T transducer (product of Nihonkoden), contractive force of bladder smooth muscle due to carbachol or concentrated potassium chloride (100 mM) was measured.

[3] = 0.5 mg/kg i.p. immediately before ischemia
[4] = 2.0 mg/kg i.p. immediately before ischemia
[5] = 8.0 mg/kg i.p. immediately before ischemia

CC1=C(CCCCCCCCCCCCCCCO)C(C)(C)CCC1=O [Compound 4, 3-(15-Hydroxypentadecyl)-2,4,4-trimethyl-2-cyclohexen-1-one]
Maximum amount excreted by single urination (STZ-administered rat [1]): 3.71 ± 0.26 mL
Urination efficiency (STZ-administered rat [2]; 100×excreted amount/bladder capacity): 75.0±6.1%
Bladder capacity (STZ-administered rat [2]; urination-inducing bladder capacity): 0.54 ± 0.07 mL
Contractive force (contraction by carbachol) (bladder smooth muscle; [3]): 4.5 ± 0.5 g/mm^2
Contractive force (contraction by concentrated potassium chloride) (bladder smooth muscle; [3]): 3.0 ± 0.4 g/mm^2
Contractive force (contraction by carbachol) (bladder smooth muscle; [4]): 5.4 ± 0.4 g/mm^2
Contractive force (contraction by concentrated potassium chloride) (bladder smooth muscle; [4]): 3.9 ± 0.3 g/mm^2
Contractive force (contraction by carbachol) (bladder smooth muscle; [5]): 6.5 ± 0.5 g/mm^2
Contractive force (contraction by concentrated potassium chloride) (bladder smooth muscle; [5]): 3.9 ± 0.4 g/mm^2
Effect on contraction of bladder smooth muscle (in words) (bladder smooth muscle; 0.5, 2.0 and 8.0 mg/kg i.p., summary of Tables 3 and 4): enhances contraction of bladder smooth muscle depending on its dose
